Patent publication US20250114289A1, “HAIR DYE COMPOSITION” (The Procter & Gamble Company, priority 2023, published 2025)

Legend:
[1] = Activating EMR and deactivating EMR wavelengths of diarylethene photochromic dyes; format: physicochemical; conditions: for peak deactivating EMR: FIG. 6; for peak activating EMR: FIG. 5
Excerpt: The activation and deactivation properties are illustrated in FIGS. 5 and 6, respectively.

[2] = Solubility of photochromic dyes in cosmetically acceptable solvents; format: physicochemical
Excerpt: Thus, it is important to select a solvent that is suitable for use on human skin and hair and enables formulation of a stable hair dye composition with sufficient dye to provide good hair coloring results.

Row | SMILES | peak deactivating EMR [1] | Max concentration ([2]; solvent Caprylic triglyceride) [% w/w] | Max concentration ([2]; solvent Isopropyl isostearate) [% w/w] | Max concentration ([2]; solvent Isopropyl myristate) [% w/w] | Max concentration ([2]; solvent Oleyl alcohol) [% w/w] | Max concentration ([2]; solvent Polysorbate 20) [% w/w] | Max concentration ([2]; solvent Polysorbate 80) [% w/w] | peak activating EMR [1]
1 | Cc1sc(-c2ccccc2)cc1C1=C(c2cc(-c3ccccc3)sc2C)C(F)(F)C(F)(F)C1(F)F [DAE-0001, 3,3′-(perfluorocyclopent-1-ene-1,2-diyl)bis(2-methyl-5-phenylthiophene)] | 560-610 nm | 0.66 | 4.95 | 4.8 | 1.47 | 0.9 | 1.08 | –
2 | Cc1sc(-c2ccccc2)nc1C1=C(c2nc(-c3ccccc3)sc2C)C(F)(F)C(F)(F)C1(F)F [DAE-0012, 4,4′-(perfluorocyclopent-1-ene-1,2-diyl)bis(5-methyl-2-phenylthiazole)] | 510-540 nm | 0.91 | 2.32 | 2.25 | 0.79 | 1.78 | 2.20 | 290-310 nm
3 | Cc1cc(C)c(C2=C(c3sc(C)cc3C)C(F)(F)C(F)(F)C2(F)F)s1 [DAE-0068, 5,5′-(perfluorocyclopent-1-ene-1,2-diyl)bis(2,4-dimethylthiophene)] | 410-450 nm | 3.46 | 3.41 | 3.09 | 1.34 | 0.95 | 0.89 | 330-360 nm
